For experiment [1], the target named is T1, P300 (Homo sapiens, UniProt Q09472).
T1 construct: endogenous in cells; host or cells: 22Rv1 (ATCC CRL-2505) human prostate cancer cells
Briefly: P300 degradation in 22Rv1 cells (5 h). Type of experiment: cell-based. To be noted: 22Rv1 cells, 5 h; for Dmax: read-out: P300 Degradation (22Rv1, 5 h) DCmax. The source says:
(§1) Biological Assays. […] Cells with 3-8 passages after purchase were used in experiments.

In experiment [2] the test system is 22Rv1 cells. Briefly: Cell growth inhibition assay (CellTiter-Glo) in 22Rv1. In kind it is cell-based, human. Particulars: Homo sapiens, 22Rv1, 96 h, 22Rv1 cells, 96 h incubation; read-out: Cell Growth Inhibition (IC50) 22Rv1. Summed up: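 22Rv1 prostate cancer cells (passages 3-8, DMEM with 10% FBS) were seeded at 4000 cells/well with compound, 3-fold dilutions from 10 μM final. After 96 h at 37° C and 5% CO2, growth was read by CellTiter-Glo 2.0 luminescence.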
On the technique in general: ATP-based viability assays read luminescence as a measure of living cells.

In experiment [3] the target is T2, CBP (Homo sapiens, UniProt Q92793).
T2 construct: endogenous in cells; host or cells: 22Rv1 (ATCC CRL-2505) human prostate cancer cells
Description: CBP degradation in 22Rv1 cells (5 h). Type of experiment: cell-based. Particulars: 22Rv1 cells, 5 h; for Dmax: 22Rv1, 5 h, read-out: CBP Degradation (22Rv1, 5 h) DCmax.
Description: as §1

The subject of experiment [4] is HL60. Briefly: Cell growth inhibition in HL60. In kind it is cell-based. Particulars: Homo sapiens, HL-60, HL60 cells; read-out: Cell Growth Inhibition (IC50) HL60.

For orientation: DC50 means the concentration giving 50% degradation. Lower therefore signals a more potent degrader. The term IC50 denotes the point on the concentration scale where inhibition reaches its midpoint.

T1 sequence (Q09472 whole entry): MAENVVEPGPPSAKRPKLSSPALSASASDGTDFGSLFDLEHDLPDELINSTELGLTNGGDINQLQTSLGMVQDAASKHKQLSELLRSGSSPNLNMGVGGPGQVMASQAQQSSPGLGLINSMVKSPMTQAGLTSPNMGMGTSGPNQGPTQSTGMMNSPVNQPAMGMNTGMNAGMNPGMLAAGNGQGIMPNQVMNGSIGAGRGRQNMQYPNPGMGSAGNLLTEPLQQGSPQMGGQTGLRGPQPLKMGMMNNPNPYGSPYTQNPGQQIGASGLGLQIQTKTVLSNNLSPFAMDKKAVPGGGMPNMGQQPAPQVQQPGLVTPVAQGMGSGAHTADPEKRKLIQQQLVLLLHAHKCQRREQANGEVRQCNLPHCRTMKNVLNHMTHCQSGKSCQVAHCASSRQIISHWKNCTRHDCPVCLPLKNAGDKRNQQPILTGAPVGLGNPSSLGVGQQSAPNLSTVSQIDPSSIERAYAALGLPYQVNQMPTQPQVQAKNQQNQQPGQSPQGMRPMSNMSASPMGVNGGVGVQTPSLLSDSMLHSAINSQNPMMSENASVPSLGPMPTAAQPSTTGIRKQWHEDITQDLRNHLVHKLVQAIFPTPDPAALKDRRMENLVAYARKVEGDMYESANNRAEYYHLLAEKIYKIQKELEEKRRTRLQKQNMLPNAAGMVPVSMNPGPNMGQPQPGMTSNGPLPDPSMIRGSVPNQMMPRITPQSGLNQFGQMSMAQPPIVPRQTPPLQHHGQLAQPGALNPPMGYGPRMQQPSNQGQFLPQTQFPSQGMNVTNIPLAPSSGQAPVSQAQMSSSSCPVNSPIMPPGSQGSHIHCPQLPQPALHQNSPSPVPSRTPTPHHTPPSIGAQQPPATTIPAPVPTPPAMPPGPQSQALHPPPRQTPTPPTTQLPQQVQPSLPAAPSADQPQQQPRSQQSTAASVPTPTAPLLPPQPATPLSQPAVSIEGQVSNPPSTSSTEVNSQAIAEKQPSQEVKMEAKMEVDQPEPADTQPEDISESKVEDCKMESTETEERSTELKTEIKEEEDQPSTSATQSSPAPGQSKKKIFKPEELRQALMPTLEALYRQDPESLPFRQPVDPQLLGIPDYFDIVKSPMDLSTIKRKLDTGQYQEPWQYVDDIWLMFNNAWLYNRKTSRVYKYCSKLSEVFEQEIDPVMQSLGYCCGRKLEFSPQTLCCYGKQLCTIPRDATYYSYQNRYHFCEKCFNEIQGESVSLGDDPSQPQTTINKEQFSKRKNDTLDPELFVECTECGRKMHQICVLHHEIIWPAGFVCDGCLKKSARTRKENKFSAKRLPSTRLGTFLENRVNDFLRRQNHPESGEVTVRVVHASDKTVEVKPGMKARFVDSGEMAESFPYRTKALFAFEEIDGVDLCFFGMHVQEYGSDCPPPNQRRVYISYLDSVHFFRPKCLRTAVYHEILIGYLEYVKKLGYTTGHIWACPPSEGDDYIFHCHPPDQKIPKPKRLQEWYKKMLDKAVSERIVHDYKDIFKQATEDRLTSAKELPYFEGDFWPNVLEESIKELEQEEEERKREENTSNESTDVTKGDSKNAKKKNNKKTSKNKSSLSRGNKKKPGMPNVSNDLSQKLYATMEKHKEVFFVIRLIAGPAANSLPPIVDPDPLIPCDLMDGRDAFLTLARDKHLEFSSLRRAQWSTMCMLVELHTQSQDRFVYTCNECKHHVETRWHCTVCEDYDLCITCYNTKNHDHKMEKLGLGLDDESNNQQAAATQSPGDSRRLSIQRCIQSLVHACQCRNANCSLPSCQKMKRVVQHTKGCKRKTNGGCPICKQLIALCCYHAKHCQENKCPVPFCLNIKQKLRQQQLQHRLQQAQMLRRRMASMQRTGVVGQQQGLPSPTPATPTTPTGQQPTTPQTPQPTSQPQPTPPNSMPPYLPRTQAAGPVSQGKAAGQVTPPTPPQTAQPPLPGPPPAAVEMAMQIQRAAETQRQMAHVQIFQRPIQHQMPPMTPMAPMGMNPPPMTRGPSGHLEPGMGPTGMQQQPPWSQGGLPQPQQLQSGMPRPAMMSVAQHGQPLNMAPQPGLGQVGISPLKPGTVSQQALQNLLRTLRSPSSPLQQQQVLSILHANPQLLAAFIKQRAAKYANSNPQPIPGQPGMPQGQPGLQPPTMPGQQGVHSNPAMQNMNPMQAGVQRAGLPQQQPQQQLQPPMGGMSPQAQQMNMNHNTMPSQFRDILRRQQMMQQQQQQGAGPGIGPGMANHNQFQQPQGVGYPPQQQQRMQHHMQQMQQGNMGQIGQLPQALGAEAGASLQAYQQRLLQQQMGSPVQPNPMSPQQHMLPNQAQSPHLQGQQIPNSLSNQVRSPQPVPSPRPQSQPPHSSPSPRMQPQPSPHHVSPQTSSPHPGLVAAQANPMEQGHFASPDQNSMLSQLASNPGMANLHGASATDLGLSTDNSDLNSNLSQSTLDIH
T2 sequence (Q92793 whole entry): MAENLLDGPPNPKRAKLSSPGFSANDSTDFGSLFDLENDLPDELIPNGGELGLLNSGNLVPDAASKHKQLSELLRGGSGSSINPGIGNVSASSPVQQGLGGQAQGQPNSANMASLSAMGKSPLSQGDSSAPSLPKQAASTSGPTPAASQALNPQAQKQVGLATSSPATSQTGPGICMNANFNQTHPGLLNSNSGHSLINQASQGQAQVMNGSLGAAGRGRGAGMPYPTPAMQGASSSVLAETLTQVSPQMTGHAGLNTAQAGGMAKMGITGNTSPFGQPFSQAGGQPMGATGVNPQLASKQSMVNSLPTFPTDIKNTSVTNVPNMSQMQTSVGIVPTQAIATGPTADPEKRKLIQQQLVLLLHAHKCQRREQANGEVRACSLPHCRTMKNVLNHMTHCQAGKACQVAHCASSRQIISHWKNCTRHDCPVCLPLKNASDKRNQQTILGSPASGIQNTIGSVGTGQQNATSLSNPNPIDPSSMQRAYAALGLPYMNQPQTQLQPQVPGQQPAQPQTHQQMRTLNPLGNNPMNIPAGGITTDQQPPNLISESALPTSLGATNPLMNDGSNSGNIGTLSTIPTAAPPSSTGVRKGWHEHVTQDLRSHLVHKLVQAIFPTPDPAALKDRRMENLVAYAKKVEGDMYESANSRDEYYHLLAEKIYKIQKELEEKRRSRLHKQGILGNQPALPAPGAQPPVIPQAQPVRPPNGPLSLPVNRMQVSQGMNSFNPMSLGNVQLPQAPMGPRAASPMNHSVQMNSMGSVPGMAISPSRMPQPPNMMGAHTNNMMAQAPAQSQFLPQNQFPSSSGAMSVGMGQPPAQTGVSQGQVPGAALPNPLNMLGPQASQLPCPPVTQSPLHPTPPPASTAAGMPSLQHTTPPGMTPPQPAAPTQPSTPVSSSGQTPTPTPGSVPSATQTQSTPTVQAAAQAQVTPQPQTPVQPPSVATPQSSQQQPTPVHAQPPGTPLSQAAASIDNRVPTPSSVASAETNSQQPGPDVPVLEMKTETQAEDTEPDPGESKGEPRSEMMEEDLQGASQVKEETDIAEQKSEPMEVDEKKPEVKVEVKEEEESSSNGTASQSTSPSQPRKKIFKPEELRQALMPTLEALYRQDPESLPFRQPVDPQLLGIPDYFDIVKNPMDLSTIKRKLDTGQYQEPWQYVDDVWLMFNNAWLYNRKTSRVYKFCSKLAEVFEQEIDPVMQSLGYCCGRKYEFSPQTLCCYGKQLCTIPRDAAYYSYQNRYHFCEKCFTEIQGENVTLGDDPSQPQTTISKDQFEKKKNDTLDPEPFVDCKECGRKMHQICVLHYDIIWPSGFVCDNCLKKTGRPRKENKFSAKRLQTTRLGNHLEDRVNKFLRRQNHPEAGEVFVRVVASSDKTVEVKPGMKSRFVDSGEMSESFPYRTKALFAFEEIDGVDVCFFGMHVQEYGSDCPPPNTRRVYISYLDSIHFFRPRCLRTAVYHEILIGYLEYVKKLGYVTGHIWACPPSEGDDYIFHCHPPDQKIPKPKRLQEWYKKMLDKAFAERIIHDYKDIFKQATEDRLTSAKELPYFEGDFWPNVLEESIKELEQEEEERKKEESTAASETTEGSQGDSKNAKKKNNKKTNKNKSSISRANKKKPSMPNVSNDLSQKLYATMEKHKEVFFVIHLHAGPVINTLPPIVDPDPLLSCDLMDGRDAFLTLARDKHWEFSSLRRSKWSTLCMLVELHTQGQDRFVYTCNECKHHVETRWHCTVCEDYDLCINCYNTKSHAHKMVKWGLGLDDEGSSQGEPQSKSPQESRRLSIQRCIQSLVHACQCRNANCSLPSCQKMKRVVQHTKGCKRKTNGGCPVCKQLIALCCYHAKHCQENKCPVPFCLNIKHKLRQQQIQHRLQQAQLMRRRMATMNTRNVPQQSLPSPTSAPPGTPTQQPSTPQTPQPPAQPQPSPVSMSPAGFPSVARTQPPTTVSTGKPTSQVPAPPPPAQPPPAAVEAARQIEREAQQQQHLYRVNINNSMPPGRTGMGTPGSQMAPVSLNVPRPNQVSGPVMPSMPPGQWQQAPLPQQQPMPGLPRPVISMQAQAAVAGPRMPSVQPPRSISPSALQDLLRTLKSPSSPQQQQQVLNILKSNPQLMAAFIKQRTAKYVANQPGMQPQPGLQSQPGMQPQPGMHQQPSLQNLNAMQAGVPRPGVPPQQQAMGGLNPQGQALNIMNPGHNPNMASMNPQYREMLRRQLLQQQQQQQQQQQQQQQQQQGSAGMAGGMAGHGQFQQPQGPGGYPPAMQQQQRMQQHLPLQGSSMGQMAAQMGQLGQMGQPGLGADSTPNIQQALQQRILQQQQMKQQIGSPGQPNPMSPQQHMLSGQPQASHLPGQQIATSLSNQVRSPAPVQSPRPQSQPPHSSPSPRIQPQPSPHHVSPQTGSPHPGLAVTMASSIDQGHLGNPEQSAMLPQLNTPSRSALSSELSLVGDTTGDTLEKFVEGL

Take `Cn1cc(-c2cc3c(cc2C(F)F)N(c2nn(C4CCN(C(=O)CN5Cc6cc7c(cc6C5)C(=O)N(C5CCC(=O)NC5=O)C7=O)CC4)c4c2CN(C(=O)C(F)F)CC4)CCC3)cn1` (stereo not drawn) [CP-056, 6-(2-(4-(5-(2,2-difluoroacetyl)-3-(7-(difluoromethyl)-6-(1-methyl-1H-pyrazol-4-yl)-3,4-dihydroquinolin-1(2H)-yl)-4,5,6,7-tetrahydro-1H-pyrazolo[4,3-c]pyridin-1-yl)piperidin-1-yl)-2-oxoethyl)-2-(2,6-dioxopiperidin-3-yl)-6,7-dihydropyrrolo[3,4-f]isoindole-1,3(2H,5H)-dione]: the DC50 was > 1 µM in experiment [1] and < 1 µM in experiment [3]. The figures for the Dmax in experiment [1] and in experiment [3] were < 50% and > 50%, respectively. The IC50 in experiment [2] and in experiment [4] was < 1 µM each time.
Consider `CC(=O)N1CCc2c(c(N3CCCc4cc(-c5cnn(C)c5)c(C(F)F)cc43)nn2[C@H]2CC[C@@H](CN3CCc4cc5c(cc4C3)C(=O)N(C3CCC(=O)NC3=O)C5=O)CC2)C1` (relative stereo) [CP-050, 6-((4-(5-acetyl-3-(7-(difluoromethyl)-6-(1-methyl-1H-pyrazol-4-yl)-3,4-dihydroquinolin-1(2H)-yl)-4,5,6,7-tetrahydro-1H-pyrazolo[4,3-c]pyridin-1-yl)cyclohexyl)methyl)-2-(2,6-dioxopiperidin-3-yl)-5,6,7,8-tetrahydro-1H-pyrrolo[3,4-g]isoquinoline-1,3(2H)-dione], for which the DC50 in experiment [1] and in experiment [3] was < 0.01 µM throughout. Further, the Dmax in experiment [1] and in experiment [3] was > 90% each time. For the same compound, the IC50 in experiment [2] and in experiment [4] was < 0.1 µM in each case.
`CC(=O)N1CCc2c(c(N3CCCc4cc(-c5cnn(C)c5)c(C(F)F)cc43)nn2[C@H]2CC[C@H](CN3CCc4cc5c(cc4C3)C(=O)N(C3CCC(=O)NC3=O)C5=O)CC2)C1` (stereo partly drawn) [CP-049, 6-((4-(5-acetyl-3-(7-(difluoromethyl)-6-(1-methyl-1H-pyrazol-4-yl)-3,4-dihydroquinolin-1(2H)-yl)-4,5,6,7-tetrahydro-1H-pyrazolo[4,3-c]pyridin-1-yl)cyclohexyl)methyl)-2-(2,6-dioxopiperidin-3-yl)-5,6,7,8-tetrahydro-1H-pyrrolo[3,4-g]isoquinoline-1,3(2H)-dione]: the DC50 in experiment [1] and in experiment [3] was < 0.01 µM throughout. Further, the Dmax was > 70% in experiment [1] and > 90% in experiment [3]. Further, the IC50 in experiment [2] and in experiment [4] was < 0.1 µM throughout.
For `Cc1noc(C)c1-c1ccc2c(c1)nc([C@@H]1CCCC(=O)N1c1ccc(F)c(F)c1)n2C1CCN(C(=O)CN2CCc3cc4c(cc3C2)C(=O)N(C2CCC(=O)NC2=O)C4=O)CC1` (stereo partly drawn) [CP-063, 6-(2-(4-(2-((S)-1-(3,4-difluorophenyl)-6-oxopiperidin-2-yl)-5-(3,5-dimethylisoxazol-4-yl)-1H-benzo[d]imidazol-1-yl)piperidin-1-yl)-2-oxoethyl)-2-(2,6-dioxopiperidin-3-yl)-5,6,7,8-tetrahydro-1H-pyrrolo[3,4-g]isoquinoline-1,3(2H)-dione], the DC50 in experiment [1] and in experiment [3] was > 1 µM throughout. The Dmax in experiment [1] and in experiment [3] was < 50% throughout. Further, the 50% inhibitory concentration (IC50) in experiment [2] and in experiment [4] was > 10 µM each time.
In the case of `Cc1noc(C)c1-c1ccc2c(c1)nc([C@@H]1CCCC(=O)N1c1ccc(F)c(F)c1)n2C1CCN(C(=O)CN2Cc3cc4c(cc3C2)C(=O)N(C2CCC(=O)NC2=O)C4=O)CC1` (stereo partly drawn) [CP-061, 6-(2-(4-(2-((S)-1-(3,4-difluroophenyl)-6-oxopiperidin-2-yl)-5-(3,5-dimethylisoxazol-4-yl)-1H-benzo[d]imidazol-1-yl)piperidin-1-yl)-2-oxoethyl)-2-(2,6-dioxopiperidin-3-yl)-6,7-dihydropyrrolo[3,4-f]isoindole-1,3(2H,5H)-dione], the figures for the DC50 in experiment [1] and in experiment [3] were > 1 µM and < 0.1 µM, respectively. For the same compound, the figures for the Dmax in experiment [1] and in experiment [3] were < 50% and > 50%, respectively. In addition, the 50% inhibitory concentration (IC50) in experiment [2] and in experiment [4] was > 10 µM each time.
On to `CC(=O)N1CCc2c(ccc3c2CCCN3c2nn(C3CCN(C(=O)CN4Cc5cc6c(cc5C4)C(=O)N(C4CCC(=O)NC4=O)C6=O)CC3)c3c2CN(C(C)=O)CC3)C1` (stereo not drawn) [CP-081, 6-(2-(4-(5-acetyl-3-(3-acetyl-1,3,4,8,9,10-hexahydro-3,7-phenanthrolin-7(2H)-yl)-4,5,6,7-tetrahydro-1H-pyrazolo[4,3-c]pyridin-1-yl)piperidin-1-yl)-2-oxoethyl)-2-(2,6-dioxopiperidin-3-yl)-6,7-dihydropyrrolo[3,4-f]isoindole-1,3(2H,5H)-dione], for which the DC50 in experiment [1] and in experiment [3] was > 1 µM in each case. Moreover, the Dmax in experiment [1] and in experiment [3] was < 50% throughout. Besides, the IC50 in experiment [2] and in experiment [4] was > 10 µM each time.
Consider `CC(=O)N1CCc2c(c(N3CCCc4cc(C5CC5)c(C(F)F)cc43)nn2C2CCN(C(=O)CN3CCc4cc5c(cc4C3)C(=O)N(C3CCC(=O)NC3=O)C5=O)CC2)C1` (stereo not drawn) [CP-014, 6-(2-(4-(5-acetyl-3-(6-cyclopropyl-7-(difluoromethyl)-3,4-dihydroquinolin-1(2H)-yl)-4,5,6,7-tetrahydro-1H-pyrazolo[4,3-c]pyridin-1-yl)piperidin-1-yl)-2-oxoethyl)-2-(2,6-dioxopiperidin-3-yl)-5,6,7,8-tetrahydro-1H-pyrrolo[3,4-g]isoquinoline-1,3(2H)-dione], for which the DC50 in experiment [1] and in experiment [3] was < 0.01 µM throughout. Besides, the Dmax in experiment [1] was > 70%; in experiment [3], > 90%. Moreover, the IC50 in experiment [2] and in experiment [4] was < 1 µM in each case.
As for `Cc1noc(C)c1-c1ccc2c(c1)nc([C@@H]1CCCC(=O)N1c1ccc(F)c(F)c1)n2C1CCN(C(=O)CCN2Cc3cc4c(cc3C2)C(=O)N(C2CCC(=O)NC2=O)C4=O)CC1` (stereo partly drawn) [CP-065, 6-(3-(4-(2-((S)-1-(3,4-difluorophenyl)-6-oxopiperidin-2-yl)-5-(3,5-dimethylisoxazol-4-yl)-1H-benzo[d]imidazol-1-yl)piperidin-1-yl)-3-oxopropyl)-2-(2,6-dioxopiperidin-3-yl)-6,7-dihydropyrrolo[3,4-f]isoindole-1,3(2H,5H)-dione], the DC50 in experiment [1] and in experiment [3] was > 1 µM in each case. For the same compound, the Dmax in experiment [1] and in experiment [3] was < 50% throughout. The IC50 in experiment [2] and in experiment [4] was > 10 µM in each case.
In the case of `CC(=O)N1CCc2c(c(N3CCCc4cc(-c5cnn(C)c5)c(C(F)F)cc43)nn2C2CCN(CC3Cc4cc5c(cc4C3)C(=O)N(C3CCC(=O)NC3=O)C5=O)CC2)C1` (stereo not drawn) [CP-052, 6-((4-(5-acetyl-3-(7-(difluoromethyl)-6-(1-methyl-1H-pyrazol-4-yl)-3,4-dihydroquinolin-1(2H)-yl)-4,5,6,7-tetrahydro-1H-pyrazolo[4,3-c]pyridin-1-yl)piperidin-1-yl)methyl)-2-(2,6-dioxopiperidin-3-yl)-6,7-dihydrocyclopenta[f]ioindole-1,3(2H,5H)-dione], the DC50 in experiment [1] and in experiment [3] was < 0.01 µM each time. Further, the Dmax in experiment [1] and in experiment [3] was > 70% throughout. Further, the IC50 is < 0.1 µM in experiment [2] and < 1 µM in experiment [4].
For the compound `CC(=O)N1CCc2c(c(N3CCCc4cc(-c5cnn(C)c5)c(C(F)F)cc43)nn2[C@H]2CC[C@H](CN3Cc4cc5c(cc4C3)C(=O)N(C3CCC(=O)NC3=O)C5)CC2)C1` (stereo partly drawn) [CP-048, 3-(6-(((1r,4r)-4-(5-acetyl-3-(7-(difluoromethyl)-6-(1-methyl-1H-pyrazol-4-yl)-3,4-dihydroquinolin-1(2H)-yl)-4,5,6,7-tetrahydro-1H-pyrazolo[4,3-c]pyridin-1-yl)cyclohexyl)methyl)-1-oxo-3,5,6,7-tetrahydropyrrolo[3,4-f]isoindol-2(1H)-yl)piperidine-2,6-dione], the DC50 in experiment [1] and in experiment [3] was < 0.01 µM throughout. The Dmax in experiment [1] and in experiment [3] was > 90% in each case. Also, the IC50 in experiment [2] and in experiment [4] was < 0.1 µM each time.
For `CC(=O)N1CCc2c(c(N3CCCc4cc(C(C)C)c(C(F)F)cc43)nn2C2CCN(C(=O)CN3Cc4cc5c(cc4C3)C(=O)N(C3CCC(=O)NC3=O)C5=O)CC2)C1` (stereo not drawn) [CP-015, 6-(2-(4-(5-acetyl-3-(7-(difluoromethyl)-6-isopropyl-3,4-dihydroquinolin-1(2H)-yl)-4,5,6,7-tetrahydro-1H-pyrazolo[4,3-c]pyridin-1-yl)piperidin-1-yl)-2-oxoethyl)-2-(2,6-dioxopiperidin-3-yl)-6,7-dihydropyrrolo[3,4-f]isoindole-1,3(2H,5H)-dione], the DC50 in experiment [1] and in experiment [3] was < 0.01 µM in each case. Also, the results for the Dmax in experiment [1] and in experiment [3] were > 70% and > 90%, respectively. In addition, the IC50 was < 1 µM in experiment [2] and < 0.1 µM in experiment [4].
Turning to `CC(=O)N1CCc2c(c(N3CCCc4cc(C5CC5)c(C(F)F)cc43)nn2C2CCN(C(=O)CN3Cc4cc5c(cc4C3)C(=O)N(C3CCC(=O)NC3=O)C5=O)CC2)C1` (stereo not drawn) [CP-013, 6-(2-(4-(5-acetyl-3-(6-cyclopropyl-7-(difluoromethyl)-3,4-dihydroquinolin-1(2H)-yl)-4,5,6,7-tetrahydro-1H-pyrazolo[4,3-c]pyridin-1-yl)piperidin-1-yl)-2-oxoethyl)-2-(2,6-dioxopiperidin-3-yl)-6,7-dihydropyrrolo[3,4-f]isoindole-1,3(2H,5H)-dione], the DC50 in experiment [1] and in experiment [3] was < 0.01 µM throughout. In addition, the Dmax in experiment [1] and in experiment [3] was > 90% throughout. Further, the IC50 in experiment [2] and in experiment [4] was < 1 µM throughout.

(Values after US20240150360A1 (THE REGENTS OF THE UNIVERSITY OF MICHIGAN, priority 2021, published 2024).)
